ChEMBL document CHEMBL1201862, “PubChem BioAssay data set” (2004)
The source made the active and inactive calls.

What was measured:
[1] = target: Mannose-6-phosphate isomerase (Homo sapiens, UniProt P34949); assay: human PMI inhibitors, high substrate, primary screen, biochemical, fluorescence intensity, high mannose 6-phosphate (AID 1220)
[2] = Luminescence Cell-Based Secondary HTS screen to identify cytotoxic compounds of NIH3T3 cells. [Related pubchem assays: 1885, 1968 ]; assay type: functional
[3] = cytotoxicity toward NIH3T3 fibroblasts, dose response, counter-screen, cell-based, ATP luminescence, mouse fibroblasts (AID 2010); assay type: functional;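 further: cells exposed to compound for about 90 hours before reading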
[4] = inhibitors of intracellular T. cruzi replication, confirmation, NIH3T3 host cells, beta-gal luminescence (AID 2044); assay type: functional, cell-based;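 further: intracellular parasites grown in NIH/3T3 mouse fibroblasts as host cells; luminescent beta-galactosidase reporter signal from transgenic T. cruzi replicating inside host cells; inhibitors lower the luminescence signal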
[5] = Jurkat T cell cytotoxicity, dose response, cytotoxicity control for P. falciparum gametocyte viability project, luminescence (AID 1117277); assay type: functional, cell-based;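 further: potency reflects loss of cellular ATP meaning fewer viable cells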
[6] = P. falciparum late gametocyte killing, dose response, luminescence (AID 1117278); assay type: functional, cell-based;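 further: gametocytes exposed to compound for 24 hours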
[7] = target: Solute carrier family 12 member 2/member 5 (Homo sapiens, UniProt P55011+Q9H2X9); assay: KCC2 and NKCC1 inhibition by rubidium flux, cell-based, NKCC1 counter-screen (AID 1734); assay type: functional, HEK293
[8] = target: Ephrin type-A receptor 4 (Mus musculus, UniProt Q03137); assay: inhibitors of EphA4 binding to KYL peptide, primary screen, biochemical, colorimetric, mouse EphA4 (AID 689); assay type: functional
[9] = target: 14-3-3 protein gamma (Homo sapiens, UniProt P61981); assay: modulators of 14-3-3 gamma client binding – dose response (AID 711); assay type: functional
[10] = AlphaScreen signal interference compounds, dose response, artefact control for ARNT-TACC3 interaction inhibitor project, biochemical, luminescence, cherry-pick (AID 651705); assay type: functional;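 further: AlphaScreen bead proximity signal that flags compounds interfering with the detection technology; potency reflects signal decrease which marks the compound as an assay artifact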
[11] = microbe, parasite or virus in culture; assay type: functional; details: Mycobacterium tuberculosis
[12] = Artemis endonuclease inhibitor potency, dose response, biochemical, fluorescence intensity (AID 720701); assay type: functional;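 further: Artemis endonuclease enzyme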
[13] = THP-1 cell cytotoxicity, dose response, cytotoxicity control for non-replicating M. tuberculosis project (AID 489025); assay type: functional
[14] = target: Luciferin 4-monooxygenase (Photinus pyralis, UniProt P08659); assay: firefly luciferase enzyme inhibitors, dose response, biochemical, luminescence (AID 1891)
[15] = Luminescence Cell-Based Dose Confirmation HTS to Identify Inhibitors of Platelet Dense Granule Release. [Related pubchem assays: 1663 (Primary HTS), 1678 (Summary of Project)]; assay type: functional
[16] = cells; assay type: functional
[17] = Vero E6 cell cytotoxicity, dose response, cytotoxicity control for non-replicating M. tuberculosis project, secondary assay (AID 492998); assay type: functional, VeroE6; details: Vero C1008
[18] = ARNT/TACC3 interaction disruptors, potency, confirmation, biochemical, AlphaScreen, cherry-picked samples (AID 651703); assay type: functional, Homo sapiens;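 further: His-tagged ARNT PAS-B domain paired with GST-TACC3 E629A dimer coactivator fragment; potency of inhibitors that break up the complex and lower AlphaScreen signal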
[19] = tested on: Streptococcus; assay: Group A Streptococcus viability loss, dose response, counter-screen for streptokinase expression inhibitor project, luminescence, BacTiterGlo (AID 1915); assay type: functional, organism-based;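 further: potency for reduction of bacterial viability or growth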
[20] = target: T1, Heat shock factor protein 1 (Mus musculus, UniProt P38532); assay: inhibition of MG132-induced HSE-luciferase signal, confirmation, cell-based, NIH3T3, luminescence, dose retest (AID 2382); assay type: functional;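 further: NIH3T3 fibroblasts with HSF1-driven luciferase reporter stressed by proteasome inhibitor MG132; luminescence from HSF1-driven luciferase expression after 8 hours of MG132 stress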
T1 sequence (P38532 whole entry): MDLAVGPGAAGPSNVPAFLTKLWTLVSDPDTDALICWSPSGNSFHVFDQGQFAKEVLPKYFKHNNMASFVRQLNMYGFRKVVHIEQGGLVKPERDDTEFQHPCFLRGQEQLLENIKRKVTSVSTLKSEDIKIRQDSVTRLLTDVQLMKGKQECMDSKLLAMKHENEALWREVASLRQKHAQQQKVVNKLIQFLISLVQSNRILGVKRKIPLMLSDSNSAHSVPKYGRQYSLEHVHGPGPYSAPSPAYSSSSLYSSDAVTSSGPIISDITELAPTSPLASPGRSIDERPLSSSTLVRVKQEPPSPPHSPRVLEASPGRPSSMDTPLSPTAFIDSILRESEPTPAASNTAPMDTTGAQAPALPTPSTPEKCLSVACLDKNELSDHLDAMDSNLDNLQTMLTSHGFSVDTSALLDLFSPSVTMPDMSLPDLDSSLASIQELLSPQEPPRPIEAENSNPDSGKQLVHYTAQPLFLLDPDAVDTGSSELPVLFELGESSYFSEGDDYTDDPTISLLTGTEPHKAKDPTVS

[21] = tested on: Streptococcus sp. 'group A'; assay: growth inhibition of control SK(-) GAS strain, dose response, counter-screen for streptokinase expression inhibitor project, luminescence, kanamycin, BacTiterGlo, confirmation (AID 1900); assay type: functional, organism-based
[22] = target: T2, Protein RecA (Mycobacterium tuberculosis, UniProt P9WHJ3); assay: Fluorescence Cell-Free Homogeneous Dose Retest to Identify Inhibitors of RecA-Intein Splicing Activity. [Related pubchem assays (depositor defined):AID2097, AID2223, AID489010, AID492950]; assay type: functional
T2 sequence (P9WHJ3 whole entry): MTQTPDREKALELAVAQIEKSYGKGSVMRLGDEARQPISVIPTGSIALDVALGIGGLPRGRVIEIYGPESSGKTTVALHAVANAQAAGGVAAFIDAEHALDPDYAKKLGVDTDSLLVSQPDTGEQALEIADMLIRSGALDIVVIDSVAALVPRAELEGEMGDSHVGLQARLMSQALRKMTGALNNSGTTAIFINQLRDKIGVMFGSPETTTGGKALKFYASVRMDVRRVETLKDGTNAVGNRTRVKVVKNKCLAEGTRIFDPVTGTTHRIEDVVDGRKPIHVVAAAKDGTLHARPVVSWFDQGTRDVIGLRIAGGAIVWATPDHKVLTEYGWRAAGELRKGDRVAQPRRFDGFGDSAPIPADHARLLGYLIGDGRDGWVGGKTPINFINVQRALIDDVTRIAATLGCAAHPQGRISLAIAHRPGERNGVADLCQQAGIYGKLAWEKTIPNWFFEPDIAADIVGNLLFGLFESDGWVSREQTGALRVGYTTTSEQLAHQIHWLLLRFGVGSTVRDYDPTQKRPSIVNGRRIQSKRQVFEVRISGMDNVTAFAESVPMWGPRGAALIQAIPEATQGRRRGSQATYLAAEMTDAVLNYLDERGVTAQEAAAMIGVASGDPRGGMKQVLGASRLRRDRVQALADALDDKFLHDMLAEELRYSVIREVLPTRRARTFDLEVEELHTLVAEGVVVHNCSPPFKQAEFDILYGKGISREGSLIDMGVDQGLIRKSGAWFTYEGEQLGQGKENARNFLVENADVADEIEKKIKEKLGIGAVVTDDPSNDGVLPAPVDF

[23] = target: T3, Streptokinase A (Streptococcus pyogenes serotype M1, UniProt P10520); assay: S. pyogenes streptokinase expression inhibitors, potency, dose response, plasminogen activation absorbance, OD405 (AID 1914); assay type: functional, Streptococcus pyogenes M1 GAS;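 further: secreted streptokinase activity via plasminogen activation per viability signal from cell pellet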
T3 sequence (P10520 whole entry): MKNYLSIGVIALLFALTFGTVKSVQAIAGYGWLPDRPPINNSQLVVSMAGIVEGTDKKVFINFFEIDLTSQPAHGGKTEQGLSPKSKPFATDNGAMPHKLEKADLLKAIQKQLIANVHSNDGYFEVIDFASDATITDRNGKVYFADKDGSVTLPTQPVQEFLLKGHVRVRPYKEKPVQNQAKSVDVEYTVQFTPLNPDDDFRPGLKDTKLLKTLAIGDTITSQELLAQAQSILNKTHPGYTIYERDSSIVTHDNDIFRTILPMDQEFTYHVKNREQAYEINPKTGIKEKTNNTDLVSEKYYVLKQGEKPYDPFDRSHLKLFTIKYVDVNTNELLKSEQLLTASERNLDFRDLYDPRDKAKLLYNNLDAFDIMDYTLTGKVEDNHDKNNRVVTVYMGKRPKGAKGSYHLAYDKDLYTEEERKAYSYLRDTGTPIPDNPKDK

[24] = target: T4, Replicative DNA helicase DnaB (Mycobacterium tuberculosis, UniProt P9WMR3); assay: DnaB intein splicing inhibitors, dose response, biochemical, cell-free fluorescence (AID 449749); assay type: functional
T4 sequence (P9WMR3 whole entry): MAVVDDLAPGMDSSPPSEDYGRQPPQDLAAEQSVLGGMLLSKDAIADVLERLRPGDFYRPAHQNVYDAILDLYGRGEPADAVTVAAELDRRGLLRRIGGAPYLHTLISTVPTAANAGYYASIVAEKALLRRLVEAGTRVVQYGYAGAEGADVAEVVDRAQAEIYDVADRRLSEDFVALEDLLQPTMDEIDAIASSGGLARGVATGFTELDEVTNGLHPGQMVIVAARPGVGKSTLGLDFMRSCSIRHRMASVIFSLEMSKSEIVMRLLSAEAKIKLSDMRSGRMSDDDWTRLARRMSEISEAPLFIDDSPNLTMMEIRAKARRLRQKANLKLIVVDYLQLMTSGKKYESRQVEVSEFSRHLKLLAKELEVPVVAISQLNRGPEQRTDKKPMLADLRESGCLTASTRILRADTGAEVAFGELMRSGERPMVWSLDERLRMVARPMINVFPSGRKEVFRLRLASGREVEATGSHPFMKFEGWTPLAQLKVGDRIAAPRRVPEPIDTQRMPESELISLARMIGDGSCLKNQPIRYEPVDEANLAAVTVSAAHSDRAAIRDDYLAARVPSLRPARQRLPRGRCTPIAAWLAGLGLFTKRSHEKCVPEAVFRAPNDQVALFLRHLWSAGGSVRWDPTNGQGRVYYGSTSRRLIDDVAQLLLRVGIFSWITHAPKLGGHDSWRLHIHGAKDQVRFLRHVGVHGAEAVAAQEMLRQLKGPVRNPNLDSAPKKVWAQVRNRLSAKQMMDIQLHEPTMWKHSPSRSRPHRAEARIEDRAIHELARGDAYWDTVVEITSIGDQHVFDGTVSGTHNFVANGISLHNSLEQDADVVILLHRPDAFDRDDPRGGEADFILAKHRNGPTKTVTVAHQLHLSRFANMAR

[25] = Luminescent dose response cell-based high throughput screening assay for inhibitors of the Janus kinase 2 mutant JAK2V617F. [Related pubchem assays: 1446 (Primary screen.), 1521 (Confirmation assay.), 1486 (Counter screen.)]; assay type: functional

Chain of Luciferin 4-monooxygenase (P08659 whole entry): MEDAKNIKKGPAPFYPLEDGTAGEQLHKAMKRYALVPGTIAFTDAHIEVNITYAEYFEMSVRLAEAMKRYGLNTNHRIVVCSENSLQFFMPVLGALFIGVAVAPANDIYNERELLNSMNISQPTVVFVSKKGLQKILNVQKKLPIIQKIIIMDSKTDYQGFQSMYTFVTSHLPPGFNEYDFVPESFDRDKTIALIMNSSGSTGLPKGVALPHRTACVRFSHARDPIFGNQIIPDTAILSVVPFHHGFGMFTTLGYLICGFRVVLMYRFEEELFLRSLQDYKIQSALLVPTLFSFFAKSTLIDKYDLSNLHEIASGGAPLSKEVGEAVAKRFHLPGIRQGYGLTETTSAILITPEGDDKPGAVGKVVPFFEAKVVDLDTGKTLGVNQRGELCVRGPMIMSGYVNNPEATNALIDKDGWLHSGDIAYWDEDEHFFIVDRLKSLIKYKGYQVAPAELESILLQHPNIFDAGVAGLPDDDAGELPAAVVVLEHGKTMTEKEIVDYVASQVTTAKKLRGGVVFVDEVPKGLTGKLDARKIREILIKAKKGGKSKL
Chain of Mannose-6-phosphate isomerase (P34949 whole entry): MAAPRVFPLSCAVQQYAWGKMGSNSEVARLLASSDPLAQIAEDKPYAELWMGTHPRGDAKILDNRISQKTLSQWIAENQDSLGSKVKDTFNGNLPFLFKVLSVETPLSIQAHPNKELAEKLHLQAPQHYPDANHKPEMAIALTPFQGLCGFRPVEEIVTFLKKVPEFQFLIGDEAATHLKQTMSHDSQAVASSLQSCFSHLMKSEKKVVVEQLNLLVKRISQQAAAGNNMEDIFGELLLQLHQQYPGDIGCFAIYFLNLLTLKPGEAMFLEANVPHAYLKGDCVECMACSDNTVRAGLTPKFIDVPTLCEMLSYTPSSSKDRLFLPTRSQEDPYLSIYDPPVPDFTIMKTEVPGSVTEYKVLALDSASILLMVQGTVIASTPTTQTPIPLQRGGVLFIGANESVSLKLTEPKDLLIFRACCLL
Chain of 14-3-3 protein gamma (P61981 whole entry): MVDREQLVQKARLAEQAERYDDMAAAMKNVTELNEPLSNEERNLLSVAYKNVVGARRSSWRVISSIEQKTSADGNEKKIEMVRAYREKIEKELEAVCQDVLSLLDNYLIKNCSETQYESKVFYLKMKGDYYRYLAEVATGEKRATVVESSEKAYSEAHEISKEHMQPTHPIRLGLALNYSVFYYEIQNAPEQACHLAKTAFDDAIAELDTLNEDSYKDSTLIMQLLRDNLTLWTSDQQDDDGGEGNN
Chain of Ephrin type-A receptor 4 (Q03137 whole entry): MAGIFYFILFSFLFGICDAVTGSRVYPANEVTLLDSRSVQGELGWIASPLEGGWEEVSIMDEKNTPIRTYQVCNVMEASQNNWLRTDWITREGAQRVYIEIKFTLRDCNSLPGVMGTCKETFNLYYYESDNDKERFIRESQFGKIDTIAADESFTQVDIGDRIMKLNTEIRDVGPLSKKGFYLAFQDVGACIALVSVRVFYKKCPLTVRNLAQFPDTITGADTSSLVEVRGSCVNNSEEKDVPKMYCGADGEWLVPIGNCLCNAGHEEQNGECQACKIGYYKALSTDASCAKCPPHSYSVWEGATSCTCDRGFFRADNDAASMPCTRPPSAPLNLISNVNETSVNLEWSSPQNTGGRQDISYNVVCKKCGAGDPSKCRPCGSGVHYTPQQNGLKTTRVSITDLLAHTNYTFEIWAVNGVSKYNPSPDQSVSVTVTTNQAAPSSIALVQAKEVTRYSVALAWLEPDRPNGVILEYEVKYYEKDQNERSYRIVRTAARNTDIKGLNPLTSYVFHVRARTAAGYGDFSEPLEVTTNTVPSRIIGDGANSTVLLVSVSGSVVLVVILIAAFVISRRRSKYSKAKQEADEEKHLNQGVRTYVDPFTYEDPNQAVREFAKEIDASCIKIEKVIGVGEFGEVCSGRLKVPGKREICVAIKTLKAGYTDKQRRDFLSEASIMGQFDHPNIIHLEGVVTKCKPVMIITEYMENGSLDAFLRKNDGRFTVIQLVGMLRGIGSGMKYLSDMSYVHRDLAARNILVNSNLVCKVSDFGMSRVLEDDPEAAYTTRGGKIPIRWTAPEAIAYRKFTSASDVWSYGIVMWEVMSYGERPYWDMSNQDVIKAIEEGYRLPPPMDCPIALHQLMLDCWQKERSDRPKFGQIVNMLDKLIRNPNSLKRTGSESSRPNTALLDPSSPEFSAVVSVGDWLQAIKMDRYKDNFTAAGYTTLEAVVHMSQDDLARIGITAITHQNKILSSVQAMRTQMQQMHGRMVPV

## FC(F)Oc1cccc(NC(=S)N2CCN(c3ccccn3)CC2)c1
[1]
  IC50: > 50 µM (not active)

## O=C(NCC1CCCN(Cc2cccc(C(F)(F)F)c2)C1)c1ccc(F)cc1 (stereo not given)
[2]
  EC50: > 195 µM (not active)
[3]
  EC50: > 60 µM (inconclusive)
[4]
  EC50: 0.112 µM (active)

## CC(C)c1cc(C(=O)O)c2cnn(C(C)C)c2n1
[5]
  IC50: > 83.2 µM (inactive)
[6]
  IC50: > 109 µM (inactive)

## CC(C)c1onc(C(=O)N2CCN(Cc3ccccc3)CC2)c1[N+](=O)[O-]
[7]
  IC50: 1.5 µM (active)

## Cc1cc(C)n(CNc2nc(C(F)(F)F)cs2)n1
[8]
  IC50: > 100 µM (not active)

## CN1C(=S)SC(N(O)C(=O)Nc2ccccc2)C1(C)C (stereo not given)
[9]
  IC50: > 50 µM (not active)

## c1ccc(-c2nc3c(ccc4ccccc43)[nH]2)nc1
[10]
  AC50: 119 µM (active)
[11]
  CC50: > 40 µM (active)
[12]
  IC50: 14.4 µM (active)
[13]
  CC50: 38.9 µM (active)
[14]
  EC50: 4.22 µM (active)
[15]
  EC50: 27.1 µM (active)
[16]
  IC50: 18.9 µM (active)
[17]
  CC50: > 20 µM (active)
[18]
  AC50: 79 µM (active)

## Cc1cccc(CS(=O)(=O)c2nnc([C@H](Cc3ccccc3)NC(=O)OC(C)(C)C)o2)c1
[19]
  EC50: 10.2 µM (active)
[20]
  EC50: 2.19 µM (active)
[21]
  EC50: 8.25 µM (active)
[22]
  EC50: 5.42 µM (active)
[23]
  EC50: 1.5 µM (active)
[24]
  AC50: 2.68 µM (active)
[25]
  IC50: 0.87 µM (active)
